Laboratory results as given in patent US20160159861A1, “APJ Receptor Compounds” (priority 2013, published 2016).
Read-outs that look alike come from different tables or passages of the source. Peptide text beside a SMILES is read from it.

Assays:
rat peritoneal cells = assay: Ex vivo histamine release assay in rat peritoneal cells (vs. Compound 48/80); format: cell-based
Source text: More desirable pharmacological tolerability can include a decrease in an undesirable side effect (e.g., histamine release, an indicator of mast cell degranulation) without a significant loss in activity of the compound.
Screening of the variant G protein receptor compounds against a control compound for histamine release can be done following standard assays. The standard assay can include comparison to a control compound known to elicit a histamine response (e.g., 48/80 having CAS No. 94724-12-6). Such an assay using rat peritoneal cells is described herein for the APJ compounds.
Test compounds were assayed in the ex vivo histamine release assay using a 3-point dose response. Concentrations of total histamine contained in the cells is used to correct for variability in the numbers of mast cells in the lavage per well.
Resident peritoneal cells were harvested from naïve Sprague Dawley rats (male 200-300 gr, Charles River). Rats were euthanized by CO2 asphyxiation and a skin incision was made along the middle-line of the abdomen. Thirty milliliters of HBSS (HyClone, cat#SH 30268.01) containing 20 mM HEPES and 0.2% BSA (heretofore Assay Buffer) were injected intraperitoneally using a 30 mL syringe with the attached 18 gauge needle. The abdomen was gently lavaged for 1-2 min and 7-10 milliliters of the peritoneal lavage were carefully aspirated. Cell count in the peritoneal lavage was determined using Cellometer Auto T4 (Nexcelom Bioscience). The peritoneal cell count was adjusted to […] cells/mL in Assay Buffer. Rat peritoneal cells were kept at room temperature before and during the assay.
For the 10-point assay, 3-fold serial dilutions were prepared for each test compound in 100% DMSO in 96-well plates (Greiner Bio One, Ref#651261)—from 100 μM down to […]. For the 3-point assay, 10-fold serial dilutions were prepared in 100% DMSO at 100 μM, 10 μM and 1 μM concentrations. From this plate, 5 μL of compound were transferred to a new plate containing 45 μL Assay Buffer to generate a compound plate with 10× final concentrations in 10% DMSO with Assay Buffer. In the final plates, column 11 contained 1% DMSO for the low-histamine-releasing control.
Suspensions of the rat peritoneal cells (90 μL of 2.75×10^5 cells/mL; →25,000 cells per well) were introduced into each well of a new 96-well microtiter plate (Greiner Bio One, Ref#651261) and 10 μL aliquots of the serially diluted compounds were transferred to the cells in each well. The microtiter plate was incubated for 30 min at room temperature. Following incubation cells were spun down (500 rpm, 7 min) and supernatants were collected for further analysis. Supernatants were diluted 6 times with the assay buffer (15 μL to 75 μL, for 90 μL total) and released histamine content was determined using HTRF® Histamine assay kit (CisBio, cat#62HTMPEB). To measure the total histamine in each well, cells were lysed by addition of 15 μL 5% TritonX-100 to each well followed by incubation for 15 minutes. The plates were then spun at 3000 rpm for 5 minutes, and 10 μL of supernatant were diluted 9-fold in assay buffer (10 μL to 80 μL for 90 μL total) to make the “total” histamine plate. Histamine content was measured as described above for the “released” histamine values.
The standard positive control was Compound 48/80 (Enzo Life Sciences), a oligomeric polymer mixture produced by the condensation of N-methyl-p-methoxyphenethylamine with formaldehyde. The trimer is the most abundant in the mixture Compound 48/80 is used to promote mast cell degranulation and activates G proteins by a mechanism analogous to that of mastoparan. […] See references: T. Higashijima et al., J. Biol., Chem., 265 14176 (1990); M. Mousli et al., FEBS Lett., 259 260 (1990); K. Gietzen et al., Biochim. Biophys. Acta, 736 109 (1983); K. Gietzen, Biochem. J., 1983 216 611 and C. Bronner et al., Biochim. Biophys. Acta, 920 301(1987).

[1] = target: T1, human APJ receptor (hAPJ) (Homo sapiens, UniProt P35414); assay: HTRF cAMP assay: inhibition of NKH477-stimulated cAMP in HEK cells stably expressing hAPJ; format: cell-based; settings: for Emax: HEK293, read-out: % IA, bound stated; for % IA (cAMP inhibition, hAPJ HEK): intrinsic activity; for Ranking: composite class of EC50 (hAPJ), % IA and % histamine or formal (+) charge
T1 construct: expressed in transfected cells
T1 sequence (P35414 1-380): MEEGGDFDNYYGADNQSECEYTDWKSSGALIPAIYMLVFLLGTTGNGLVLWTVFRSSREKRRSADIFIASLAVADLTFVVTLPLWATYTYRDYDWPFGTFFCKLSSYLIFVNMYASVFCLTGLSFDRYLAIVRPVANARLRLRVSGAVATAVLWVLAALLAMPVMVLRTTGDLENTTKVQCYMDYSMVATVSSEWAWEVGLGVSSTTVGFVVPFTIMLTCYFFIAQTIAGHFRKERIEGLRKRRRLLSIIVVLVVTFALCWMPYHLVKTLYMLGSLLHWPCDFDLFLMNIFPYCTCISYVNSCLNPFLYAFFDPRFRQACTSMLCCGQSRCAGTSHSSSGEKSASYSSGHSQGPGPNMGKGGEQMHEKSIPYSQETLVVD
Source text: HTRF cAMP Assay and IP-One Assay (Cisbio)
HTRF (homogeneous time resolved fluorescence) is a technology developed by Cisbio Bioassays based on TR-FRET (time-resolved fluorescence resonance energy transfer). Cisbio Bioassays has developed a wide selection of HTRF-based assays compatible with whole cells, thereby enabling functional assays to run under more physiological conditions. The IP-One assays are competitive immunoassays using cryptate-labeled anti-IP1 monoclonal antibody and d2-labeled IP1. IP1 is a relatively stable downstream metabolite of IP3, and accumulates in cells following Gq receptor activation.
cAMP kits based on a competitive immunoassay using cryptate-labeled anti-cAMP antibody and d2-labeled cAMP were used to assay the effects of APJ compounds of the present invention. […] Cells are treated with 1 nG/mL doxycycline and seeded in all white 96 well plates @40 k/well overnight.

[2] = histamine release from rat peritoneal cells relative to Compound 48/80
[3] = EC50 (cAMP inhibition, hAPJ HEK), Table 6, hAPJ HEK cells, NKH477-stimulated cAMP
[4] = EC50 (hAPJ), inhibition of cAMP production, bound stated, HTRF cAMP Assay, per data of Table 6
[5] = HTRF cAMP Assay, per data of Table 6
[6] = Table 6, hAPJ HEK cells, NKH477-stimulated cAMP, read-out: EC50 (cAMP inhibition, hAPJ HEK)
[7] = HTRF cAMP Assay, per data of Table 6, read-out: EC50 (hAPJ), inhibition of cAMP production, bound stated

Row | Compound | Histamine (% vs. 48/80) (rat peritoneal cells; [2]) [%] | EC50 [1, 3] [nM] | EC50 [1, 4] [nM] | Emax [1, 5] [%] | % IA (cAMP inhibition, hAPJ HEK) ([1]; Table 6, hAPJ HEK cells) [%] | Ranking [1] | inhibition of NKH477-stimulated increase in cAMP, dose dependent ([1]; concentration response curves, FIGS. 1 and 2, HEK cells stably expressing APJ) | Histamine (% vs. 48/80) (rat peritoneal cells) [%] | EC50 [1, 6] [nM] | EC50 [1, 7] [nM]
1 | CCCCCCCCCCCCCCCC(=O)N[C@H](C(=O)N[C@H](C(=O)N[C@@H](Cc1ccccc1)C(=O)N[C@@H](CCCNC(=N)N)C(=O)N[C@@H](CO)C(=O)N[C@@H](CO)C(=O)N[C@@H](CCC(=O)O)C(=O)N[C@H](CCCN)C(=O)N[C@@H](CCCNC(=N)N)C(=O)N[C@@H](CCCNC(=N)N)C(=O)N[C@@H](CO)C(=O)N[C@@H](C)C(=O)N[C@@H](CC(=O)O)C(=O)N[C@H](C(=O)N[C@@H](Cc1ccccc1)C(=O)N[C@H](C(N)=O)[C@@H](C)CC)[C@@H](C)CC)C(C)C)[C@@H](C)O [Compound 8] (HELM PEPTIDE1{[CCCCCCCCCCCCCCCC(=O)[*:2]].T.V.F.R.S.S.E.[NCCC[C@@H](N[*:1])C(=O)[*:2]].R.R.S.A.D.I.F.I.[am]}$$$$V2.0) | 9 | 14 | ≤ 25 | ≥ 80 | 99 | ***** (EC50≦25 nM (hAPJ), % IA≧80% and either % histamine≦35% or formal (+) charge≦1) | inhibited |  |  | 
2 | CCCCCCCCCCCCCCCC(=O)N[C@H](C(=O)N[C@H](C(=O)N1CCC[C@H]1C(=O)N[C@@H](Cc1ccccc1)C(=O)N[C@@H](CCCNC(=N)N)C(=O)N[C@@H](CO)C(=O)N[C@@H](CO)C(=O)N[C@@H](CCC(=O)O)C(=O)N1CCC[C@H]1C(=O)N[C@H](CCCCN)C(=O)N[C@@H](CCCNC(=N)N)C(=O)N[C@@H](CCCNC(=N)N)C(=O)N[C@@H](CO)C(=O)N[C@@H](C)C(=O)N[C@@H](CC(=O)O)C(=O)N[C@H](C(=O)N[C@@H](Cc1ccccc1)C(=O)N[C@H](C(N)=O)[C@@H](C)CC)[C@@H](C)CC)C(C)C)[C@@H](C)O [Compound 1] (HELM PEPTIDE1{[CCCCCCCCCCCCCCCC(=O)[*:2]].T.V.P.F.R.S.S.E.P.[dK].R.R.S.A.D.I.F.I.[am]}$$$$V2.0) | 53 | 4 |  |  | 57 | ** (EC50 25-50 nM (hAPJ), % IA 50-79% and either % histamine>35% or formal (+) charge>1) |  |  |  | 
3 | CCCCCCCCCCCCCCCC(=O)N[C@H](C(=O)N[C@H](C(=O)N[C@@H](Cc1ccccc1)C(=O)N[C@@H](CCCNC(=N)N)C(=O)N[C@@H](CO)C(=O)N[C@@H](CO)C(=O)N1CCC[C@H]1C(=O)N[C@@H](CCC(=O)O)C(=O)N[C@H](CCCCN)C(=O)N[C@@H](CCCNC(=N)N)C(=O)N[C@@H](CCCNC(=N)N)C(=O)N[C@@H](CO)C(=O)N1CCC[C@H]1C(=O)N[C@@H](C)C(=O)N[C@@H](CC(=O)O)C(=O)N[C@H](C(=O)N[C@@H](Cc1ccccc1)C(N)=O)[C@@H](C)CC)C(C)C)[C@@H](C)O [Compound 23] (HELM PEPTIDE1{[CCCCCCCCCCCCCCCC(=O)[*:2]].T.V.F.R.S.S.P.E.[dK].R.R.S.P.A.D.I.F.[am]}$$$$V2.0) |  |  |  |  | 63 | ** (EC50 25-50 nM (hAPJ), % IA 50-79% and either % histamine>35% or formal (+) charge>1) |  | 67 | 44 | 
4 | CCCCCCCCCCCCCCCC(=O)N[C@H](C(=O)N[C@H](C(=O)N[C@@H](CC(=O)O)C(=O)N[C@@H](CCCNC(=N)N)C(=O)N[C@@H](CO)C(=O)N[C@@H](CO)C(=O)N[C@@H](CCCCN)C(=O)N[C@@H](CCC(=O)O)C(=O)N[C@H](CCCCN)C(=O)N[C@@H](CCCNC(=N)N)C(=O)N[C@@H](CCCNC(=N)N)C(=O)N[C@@H](CO)C(=O)N[C@@H](C)C(=O)N[C@@H](CC(=O)O)C(=O)N[C@H](C(=O)N[C@@H](Cc1ccccc1)C(=O)N[C@H](C(N)=O)[C@@H](C)CC)[C@@H](C)CC)C(C)C)[C@@H](C)O [Compound 7] (HELM PEPTIDE1{[CCCCCCCCCCCCCCCC(=O)[*:2]].T.V.D.R.S.S.K.E.[dK].R.R.S.A.D.I.F.I.[am]}$$$$V2.0) |  | 9 | 25 to 50 | 50 to 79 | 59 | *** (EC50 25-50 nM (hAPJ), % IA 50-79% and either % histamine≦35% or formal (+) charge≦1) |  |  |  | 
5 | CCCCCCCCCCCCCCCC(=O)N[C@@H](CC(=O)O)C(=O)N[C@H](C(=O)N[C@@H](Cc1ccccc1)C(=O)N[C@@H](CCCNC(=N)N)C(=O)N[C@@H](CO)C(=O)N[C@@H](CO)C(=O)N[C@@H](CCC(=O)O)C(=O)N[C@H](CCCCN)C(=O)N[C@@H](CCCNC(=N)N)C(=O)N[C@@H](CCCNC(=N)N)C(=O)N[C@@H](CO)C(=O)N[C@@H](C)C(=O)N[C@@H](CC(=O)O)C(=O)N[C@@H](CC(N)=O)C(=O)N[C@@H](Cc1ccccc1)C(=O)N[C@H](C(N)=O)[C@@H](C)CC)C(C)C [Compound 20] (HELM PEPTIDE1{[CCCCCCCCCCCCCCCC(=O)[*:2]].D.V.F.R.S.S.E.[dK].R.R.S.A.D.N.F.I.[am]}$$$$V2.0) |  |  |  | 50 to 79 | 98 | *** (EC50 25-50 nM (hAPJ), % IA 50-79% and either % histamine≦35% or formal (+) charge≦1) |  |  | 32 | 25 to 50
6 | CCCCCCCCCCCCCCCC(=O)N[C@@H](CC(=O)O)C(=O)N[C@H](C(=O)N[C@@H](Cc1ccccc1)C(=O)N[C@@H](CC(N)=O)C(=O)N[C@@H](CO)C(=O)N[C@@H](CO)C(=O)N[C@@H](CCC(=O)O)C(=O)N[C@H](CCCCN)C(=O)N[C@@H](CCCNC(=N)N)C(=O)N[C@@H](CCCNC(=N)N)C(=O)N[C@@H](CO)C(=O)N[C@@H](C)C(=O)N[C@@H](CC(=O)O)C(=O)N[C@@H](CC(N)=O)C(=O)N[C@@H](Cc1ccccc1)C(=O)N[C@H](C(N)=O)[C@@H](C)CC)C(C)C [Compound 19] (HELM PEPTIDE1{[CCCCCCCCCCCCCCCC(=O)[*:2]].D.V.F.N.S.S.E.[dK].R.R.S.A.D.N.F.I.[am]}$$$$V2.0) |  |  |  | 50 to 79 | 67 | *** (EC50 25-50 nM (hAPJ), % IA 50-79% and either % histamine≦35% or formal (+) charge≦1) |  |  | 5 | 25 to 50
